“Also recorded” adds a separate entry of the source.
System: KIA cells
Assay: Subcutaneous KIA cell allograft in nude mice (primary tumor, lung metastasis, collagen)
Type: in vivo
Details: 1 mg/kg or 3 mg/kg intraperitoneal every other day for 3 weeks
Source text: Generation of Hif1α^fl/fl mice (Ryan et al., 2000, Cancer Res 60(15):4010-5) and LSL-Kras^G12D/+Trp53^fl/fl mice has been previously described (Kirsch et al., 2007, Nat Med 13(8):992-7). These mice were crossed to create the LSL-Kras^G12D/+Trp53^fl/flHif1a^fl/fl animals. Soft tissue sarcomas were generated by intramuscular injection of a calcium phosphate precipitate of Ad-Cre (Gene Transfer Vector Core, University of Iowa). For transplant tumors 1×106 KIA (derived from LSL-Kras^G12D/+[…] tumors) were injected subcutaneously into the flanks of nu/nu mice (Charles River Laboratories). In each experiment 10 mice per experimental group were used with each mouse bearing two subcutaneous tumors. Tumors developed after 3-5 days, were monitored every other day, and animals were euthanized after 20-30 days. For in vivo lung metastasis analysis lung tissues were removed, and sections were stained with hematoxylin and eosin. Images were acquired using a Nikon SMZ800 stereoscope with a Nikon 1200F digital camera and Nikon Act-1 software. The ratio of total metastatic sarcoma foci to total lung area (% tumor burden) was determined using ImagePro 6.3 software (Media Cybernetics Inc.). Additionally, the percent of animals in the entire cohort with metastatic foci was evaluated along with total number of metastatic foci per experiment and the averae number of sarcoma lung foci per lung in each experiment. For Minoxidil injections, allografts and drug treatments were started simultaneously. Mice bearing subcutaneous KIA tumors on each flank were intraperitoneal injected with PBS, 1 mg/kg Minoxidil, or 3 mg/kg Minoxidil every other day unless the animals were euthanized, the tumors and lungs removed.
Immunohistochemistry of tissue sections with antibodies to HIF1α (Abcam) and Lectin (Vector Labs) was performed using enzymatic Avidin-Biotin Complex (ABC)-diaminobenzidine (DAB) staining (Vector Labs). Nuclei were counterstained with hematoxylin. […] Collagen was quantified using Image-Pro software. […]

## Nc1cc(N2CCCCC2)nc(N)[n+]1[O-] [Minoxidil]
  overall animal health/weight: no effect; also recorded: unaffected
  primary tumor volume: no effect
  tumor weight (mass): no effect

From patent publication US20140356287A1, “PLOD2 as a Target of Intervention for Sarcoma Metastasis” (The Trustees of the University of Pennsylvania, priority 2013, published 2014)
